Measured values published in patent publication US11136317B2, “NADPH oxidase 4 inhibitors” (ACTELION PHARMACEUTICALS LTD, priority 2015, dated 2021).

molecular target: T1, human NOX4 (Homo sapiens, UniProt Q9NPH5); experiment: Amplex Red activity assay (cellular H2O2 formation in hNOX4 T-REx-293 cells); assay type: cell-based; conditions: tet-induced 24 h, extracellular H2O2 by Amplex Red, 60 min 25° C., geometric mean if determined several times
T1 construct: The full-length human NOX4 (NM_016931.3) transcript was cloned; expressed in transfected cells
T1 sequence (Q9NPH5 1-578): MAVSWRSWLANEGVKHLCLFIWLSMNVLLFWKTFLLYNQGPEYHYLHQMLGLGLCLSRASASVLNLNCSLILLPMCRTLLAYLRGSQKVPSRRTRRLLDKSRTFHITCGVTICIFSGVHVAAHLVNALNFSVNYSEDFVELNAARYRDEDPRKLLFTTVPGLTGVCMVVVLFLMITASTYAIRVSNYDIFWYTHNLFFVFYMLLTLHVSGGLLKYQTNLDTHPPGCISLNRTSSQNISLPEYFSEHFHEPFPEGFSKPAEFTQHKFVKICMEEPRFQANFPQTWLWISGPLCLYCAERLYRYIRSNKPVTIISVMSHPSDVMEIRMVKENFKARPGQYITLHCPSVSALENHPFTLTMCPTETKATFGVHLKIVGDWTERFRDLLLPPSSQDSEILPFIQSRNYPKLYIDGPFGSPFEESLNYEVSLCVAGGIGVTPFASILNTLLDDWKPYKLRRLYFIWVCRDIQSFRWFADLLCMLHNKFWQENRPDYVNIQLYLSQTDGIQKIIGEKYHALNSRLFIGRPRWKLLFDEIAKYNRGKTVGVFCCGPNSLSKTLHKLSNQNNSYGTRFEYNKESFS
T1 sequence (P13498 1-195 partner): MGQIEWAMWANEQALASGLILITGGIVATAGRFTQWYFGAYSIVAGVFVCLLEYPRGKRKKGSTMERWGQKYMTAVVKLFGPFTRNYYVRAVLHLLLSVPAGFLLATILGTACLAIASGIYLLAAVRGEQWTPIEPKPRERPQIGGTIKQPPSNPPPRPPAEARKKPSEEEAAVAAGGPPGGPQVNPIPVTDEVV
Outline: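 Tet-induced (1 μg/mL, 24 h) HEK293 T-REx cells stably expressing full-length human NOX4, 20 000 cells/well, exposed to compounds (10 concentrations, 50 μM to 100 nM; 1.25% DMSO) for 60 min at 25°C. Extracellular H2O2 detected by Amplex Red resorufin fluorescence (ex 550/em 600 nm) versus vehicle; IC50 calculated.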

SMILES	IC50 [µM]
CN1CCOc2ccc(C(=O)Nc3ccc4oc(N5CCC(O)CC5)nc4c3)cc21 [Example 186, 4-Methyl-3,4-dihydro-2H-benzo[1,4]oxazine-6-carboxylic acid [2-(4-hydroxy-piperidin-1-yl)-benzooxazol-5-yl]-amide]	3.45
O=C(Nc1ccc2c(c1)OCCO2)c1ccc2sc(N3CCC34COC4)nc2c1 [Example 203, 2-(6-Oxa-1-aza-spiro[3.3]hept-1-yl)-benzothiazole-5-carboxylic acid (2,3-dihydro-benzo[1,4]dioxin-6-yl)-amide]	1.84
O=C(Nc1ccc2oc(N3CCCC4(COC4)C3)nc2c1)c1ccc2c(c1)OCO2 [Example 133, Benzo[1,3]dioxole-5-carboxylic acid [2-(2-oxa-6-aza-spiro[3.5]non-6-yl)-benzooxazol-5-yl]-amide]	0.614
O=C(Nc1ccc2oc(N3CCCC4(COC4)C3)nc2c1)c1ccc2c(c1)OCCO2 [Example 171, 2,3-Dihydro-benzo[1,4]dioxine-6-carboxylic acid [2-(2-oxa-6-aza-spiro[3.5]non-6-yl)-benzooxazol-5-yl]-amide]	0.792
O=C(Nc1ccc2oc(N3CCC(O)CC3)nc2c1)c1ccc2c(c1)OCCO2 [Example 167, 2,3-Dihydro-benzo[1,4]dioxine-6-carboxylic acid [2-(4-hydroxy-piperidin-1-yl)-benzooxazol-5-yl]-amide]	1.22
O=C(Nc1ccc2sc(N3CC(F)(F)C3)nc2c1)c1ccc2c(c1)CCO2 [Example 87, 2,3-Dihydro-benzofuran-5-carboxylic acid [2-(3,3-difluoro-azetidin-1-yl)-benzothiazol-5-yl]-amide]	4.1
O=C(Nc1ccc2oc(N3CCCC34COC4)nc2c1)c1ccc2c(c1)OCO2 [Example 128, Benzo[1,3]dioxole-5-carboxylic acid [2-(2-oxa-5-aza-spiro[3.4]oct-5-yl)-benzooxazol-5-yl]-amide]	1.74
O=C(Nc1ccc2oc(N3CCCC(F)(F)C3)nc2c1)c1ccc2c(c1)OCCO2 [Example 168, 2,3-Dihydro-benzo[1,4]dioxine-6-carboxylic acid [2-(3,3-difluoro-piperidin-1-yl)-benzooxazol-5-yl]-amide]	1.14
CN1CCOc2ccc(C(=O)Nc3ccc4oc(N5CCC56CCOC6)nc4c3)cc21 (stereo not drawn) [Example 181, 4-Methyl-3,4-dihydro-2H-benzo[1,4]oxazine-6-carboxylic acid [2-(6-oxa-1-aza-spiro[3.4]oct-1-yl)-benzooxazol-5-yl]-amide]	2.44
O=C(Nc1ccc2oc(N3CCC(O)CC3)nc2c1)c1ccc2c(c1)OCO2 [Example 135, Benzo[1,3]dioxole-5-carboxylic acid [2-(4-hydroxy-piperidin-1-yl]-benzooxazol-5-yl]-amide]	1.09
COC1CCN(c2nc3cc(C(=O)Nc4ccc5c(c4)OCO5)ccc3s2)CC1 [Example 210, 2-(4-Methoxy-piperidin-1-yl)-benzothiazole-5-carboxylic acid benzo[1,3]dioxol-5-ylamide]	6.9
O=C(Nc1ccc2c(c1)CCO2)c1ccc2oc(N3CCOCC3)nc2c1 [Example 77, 2-Morpholin-4-yl-benzooxazole-5-carboxylic acid (2,3-dihydro-benzofuran-5-yl)-amide]	0.548
O=C(Nc1ccc2oc(N3CCCC3)nc2c1)c1ccc2c(c1)OCO2 [Example 127, Benzo[1,3]dioxole-5-carboxylic acid (2-pyrrolidin-1-yl-benzooxazol-5-yl)-amide]	1.25
CCN(CC)c1nc2cc(NC(=O)c3ccc4c(c3)CCCO4)ccc2o1 [Example 157, Chroman-6-carboxylic acid (2-diethylamino-benzooxazol-5-yl)-amide]	2.03
COC1CCN(c2nc3cc(NC(=O)c4ccc5c(c4)CCO5)ccc3o2)C1 (stereo not drawn) [Example 10, 2,3-Dihydro-benzofuran-5-carboxylic acid [2-(3-methoxy-pyrrolidin-1-yl)-benzooxazol-5-yl]-amide]	0.711
CCN(CC)c1nc2cc(C(=O)Nc3ccc4c(c3)CCO4)ccc2o1 [Example 78, 2-Diethylamino-benzooxazole-5-carboxylic acid (2,3-dihydro-benzofuran-5-yl)-amide]	0.417
O=C(Nc1ccc2oc(N3CC(N4CCS(=O)(=O)CC4)C3)nc2c1)c1ccc2c(c1)CCO2 [Example 19, 2,3-Dihydro-benzofuran-5-carboxylic acid {2-[3-(1,1-dioxo-1l6-thiomoipholin-4-yl)-azetidin-1-yl]-benzooxazol-5-yl}-amide]	2.89
O=C(Nc1ccc2oc(N3CCCCC3)nc2c1)c1ccc2c(c1)CCCO2 [Example 148, Chroman-6-carboxylic acid (2-piperidin-1-yl-benzooxazol-5-yl)-amide]	1.88
O=C(Nc1ccc2oc(N3CCC(O)CC3)nc2c1)c1ccc2c(c1)CCCO2 [Example 151, Chroman-6-carboxylic acid [2-(4-hydroxy-piperidin-1-yl)-benzooxazol-5-yl]-amide]	1.41
CN1CCC2(CC1)CCN2c1nc2cc(NC(=O)c3ccc4c(c3)CCO4)ccc2o1 [Example 67, 2,3-Dihydro-benzofuran-5-carboxylic acid [2-(7-methyl-1,7-diaza-spiro[3.5]non-1-yl)-benzooxazol-5-yl]-amide]	3.08
O=C(Nc1ccc2oc(N3CC(O)C3)nc2c1)c1ccc2c(c1)CCO2 [Example 47, 2,3-Dihydro-benzofuran-5-carboxylic acid [2-(3-hydroxy-azetidin-1-yl)-benzooxazol-5-yl]-amide]	0.657
O=C(Nc1ccc2oc(N3CCC34CCOC4)nc2c1)c1ccc2c(c1)CCO2 (stereo not drawn) [Example 71, 2,3-Dihydro-benzofuran-5-carboxylic acid [2-(6-oxa-1-aza-spiro[3.4]oct-1-yl)-benzooxazol-5-yl]-amide]	0.336
CN(C)CCN(C)c1nc2cc(NC(=O)c3ccc4c(c3)CCO4)ccc2o1 [Example 13, 2,3-Dihydro-benzofuran-5-carboxylic acid {2-[(2-dimethylamino-ethyl)-methyl-amino]-benzooxazol-5-yl}-amide; compound with formic acid]	5.36
CN1CCN(c2nc3cc(C(=O)Nc4ccc5c(c4)CCO5)ccc3o2)CC1 [Example 75, 2-(4-Methyl-piperazin-1-yl)-benzooxazole-5-carboxylic acid (2,3-dihydro-benzofuran-5-yl)-amide]	0.421
O=C(Nc1ccc2oc(N(C3CC3)C3COC3)nc2c1)c1ccc2c(c1)CCCO2 [Example 158, Chroman-6-carboxylic acid [2-(cyclopropyl-oxetan-3-yl-amino)-benzooxazol-5-yl]-amide]	2.86
O=C(Nc1ccc2oc(N3CCS(=O)(=O)CC3)nc2c1)c1ccc2c(c1)OCCO2 [Example 39, 2,3-Dihydro-benzo[1,4]dioxine-6-carboxylic acid [2-(1,1-dioxo-thiomorpholin-4-yl)-benzooxazol-5-yl]-amide]	0.444
O=C(Nc1ccc2sc(N3CCS(=O)(=O)CC3)nc2c1)c1ccc2c(c1)CCO2 [Example 92, 2,3-Dihydro-benzofuran-5-carboxylic acid [2-(1,1-dioxo-1l6-thiomorpholin-4-yl)-benzothiazol-5-yl]-amide]	2.46
